Source: article PMC7641127, “MCL1 binds and negatively regulates the transcriptional function of tumor suppressor p73” (Cell Death & Disease, 2020)
Read-outs that look alike come from different tables or passages of the source. No end group written: not given here.

Columns and labels:
H1299 cells = assay: TaqMan RT-qPCR of p73 target genes in H1299; format: cell-based, human; conditions: 24 h, normalized to GAPDH, biological and technical triplicate
Procedure: Four known p73 target genes were analyzed by TaqMan RT-qPCR. After a baseline was established, H1299 cells were treated with b an siRNA targeting MCL1 (48 h) or c 2 μM MCL1 inhibitor A1210477 (24 h). […] All experiments were performed in biological and technical triplicate. Bar graphs shown with SEM of one representative assay. A Student’s t-test was applied to each target gene for each treatment for statistical analysis, p-values: *p < 0.05, **p < 0.01, ***p < 0.001, ****p < 0.0001.
RNA was purified from human cancer cell lines for RT-qPCR with the SurePrep TrueTotal RNA Purification Kit (Fisher BioReagents, BP2800-50) by the manufacturer’s protocol. The final concentration of purified RNA was measured using a Nanodrop 2000c spectrophotometer. Once RNA concentration was determined, a single step cDNA synthesis reaction was made in TempAssure PCR 8-Tube Strips (USA Scientific, 1402-2500) in technical duplicate as follows: 100 ng RNA, 16 μL nuclease-free water (Ambion, 1512103), and 4 μL qScript cDNA SuperMix (Quanta BioSciences Inc., 84034). […] Concentration was determined after the cDNA synthesis on the Nanodrop 2000c spectrophotometer. cDNA was diluted to 25 ng/μL into Molecular Biology Grade Water (Corning, 46-000-CM) and stored at −20 °C for future use. […]
All RT-qPCR reactions were performed in biological triplicate. […] All target genes analyzed were normalized to GAPDH. […]

PC-3 cells [1] = assay: TaqMan RT-qPCR of p73 target genes in PC-3; format: cell-based, human; conditions: normalized to GAPDH, biological and technical triplicate
Procedure: All RT-qPCR reactions were performed in biological triplicate. A master mix for each target or housekeeping gene was made with 15 μL RNAse-free water, 3 μL 20× RT-qPCR Primer Mix (ThermoScientific), 12 μL 25 ng/μL cDNA, and 30 μL TaqMan Universal Master Mix II, with UNG (Applied Biosystems, 2020-02-29). The mix was aliquoted out 20 μL/well in technical triplicate with the final concentration of cDNA at 100 ng/reaction. PCR reactions were performed on an Applied Biosystems ViiA 7 Real-Time PCR System for 40 cycles starting at 25 °C. Each cycle is 50 °C for 2 min, 95 °C for 10 min, and 15 s, and 60 °C for 1 min. Temperature shifts at 1.6 °C/s. All data are collected and analyzed using Applied Biosystems QuantStudio Real-Time PCR Software. All target genes analyzed were normalized to GAPDH. All primers had FAM-MGB probes. All TaqMan primers were ordered from ThermoFisher Scientific with the target gene and Assay ID included: CDKN2A/p21 (Hs00355782_m1), PMAIP1/NOXA (Hs00560402_m1), GADD45A (Hs00169255_m1), BBC3/PUMA (Hs00248075_m1), GAPDH (Hs02758991_g1).
Four known p73 target genes were analyzed by TaqMan RT-qPCR. After a baseline was established, cells were treated with b an siRNA targeting MCL1 or c 2 μM MCL1 inhibitor A1210477. […] All experiments were performed in biological and technical triplicate. Bar graphs shown with SEM of one representative assay. […]

recombinant MCL1 [2] = target: T1, recombinant MCL1 (Homo sapiens, UniProt Q07820); assay: Competitive fluorescence polarization assay (FPA), MCL1 with F-BAK probe; format: binding
T1 construct: made in house; host or cells: E. coli BL21 (DE3)
Source text: (§1) We next sought to determine which core domain, the DBD or the TD, of p73 mediates binding to MCL1. […] Therefore, we expressed and purified recombinant p73DBD and tested its ability to associate with MCL1 using competitive fluorescence polarization assay (FPA) analysis and NMR chemical shift perturbation (CSP) studies (Fig. 2a, Supplementary Fig. 1). FPA is a biochemical assay that can either determine the binding constant between a recombinant protein and a fluorescently labeled small molecule or peptide (i.e. direct FPA as a measure of KD) or it can determine the concentration in which an unknown binding partner can compete with bound fluorescently labeled ligand (competitive FPA as a measure of IC50).
In a flat-bottom, untreated black 96-well microplate (ThermoScientific), 80 μL recombinant protein is incubated with 10 μL 10× unlabeled peptide or small molecule inhibitor shaking at 300 rpm for 20 min to allow for binding. Once complete, 10 μL of 10× FITC-peptide is added per well. The plate is covered with an opaque lid to shake for an additional 40 min. After 1 h incubation is complete, the plate is read using the FP-Fluorescein setting (1.0 s, CW lamp filter—F485, emission filter, F535) on a Perkin Elmer Victor X5 plate reader. The buffer used for all assays is 1× PBS, pH 7.4. All experiments were completed in technical and biological triplicate. All data plotted in Fig. 2 is one representative assay in technical triplicate.

PC-3 cells [3] = assay: Annexin V/PI staining with FACS; format: cell-based, human; conditions: N=4
Procedure: Cells were seeded in a six-well plate and treated through various treatments to modulate MCL1 or p73 expression as they were in previous experiments. After the 24 or 48 h treatment, cells were collected through trypsin dissociation and washed twice with sterile DPBS. Cell number was counted on a BioRad Automated Cell Counter. After final wash, cells were pelleted at 1000×g for 10 min. The cell pellet was resuspended in 1× Annexin V binding buffer (BD Pharmingen, 556454) and 5 × 10^5 cells were transferred to a FACS tube containing 5 μL propidium iodide (PI) staining solution (BD Pharmingen, 51-66211E) and 5 μL FITC-Annexin V (BD Pharmingen, 556419). Cells were incubated for 15 min in the dark. FACS was collected on a BD LSRFortessa and analyzed using FlowJo v10. Compensation controls used for analysis include unstained cells and cells stained for each individual fluorophore (FITC-Annexin V and Cy5-PI). Gating strategy eliminated cell debris and doublets through forward and side scatter plots.
Supplemental Fig 3. […] Cells were stained with Annexin V and Propidium Iodide (PI) to determine the apoptotic cell population. […] All plots shown here are representative plots of the data set, N=4.

PC-3 cells [4] = assay: Cellular fractionation and western blot after cisplatin; format: cell-based, human; conditions: low dose (printed 5 mM), 24 hours, vs 0.5% DMF, western blot
Procedure: Cellular localization was performed using the NE-PER Nuclear and Cytoplasmic Extraction Reagent Kit (ThermoScientific, 78833) per the manufacturer’s protocol. The western blot quantification analysis was completed in the Image Lab 6.0.1 software using the Adjusted Volume tool. All assays were completed in biological triplicate with one representative image for each treatment group and/or cell line.
Cells were fractionated in cytosolic and nuclear compartments. Protein localization was analyzed through Western Blot analysis. Lamin A/C and GAPDH were used for fractionation controls. Band quantifications using the adjusted volume for each individual band are below for reference. All paired samples are normalized to the WCL treated with DMF alone.

recombinant MCL1 [5] = target: T1, recombinant MCL1; assay: Direct FPA of FITC-labeled peptides with MCL1; format: binding; conditions: N-terminally FITC-labeled peptide with recombinant MCL1; 1x PBS pH 7.4; 30 min; at or approaching limit of detection of probe
Source text: as §1
The buffer used for all assays is 1× PBS, pH 7.4. All experiments were completed in technical and biological triplicate.

15N MCL1 = assay: 2D [15N,1H]-HSQC NMR chemical shift perturbation of 15N MCL1; format: binding, human; conditions: 50 μM 15N MCL1 + 200 μM ligand; 1x PBS pH 6.8; significant CSP = >2SD above mean (0.046 ppm)
Procedure: Fig. 3 P73 binds to the BH3-binding groove of MCL1. a 2D [^15N, ^1H]-HSQC spectra of 50 μM ^15N MCL1 + 2% DMSO (black contours) or 50 μM ^15N MCL1 + 200 μM p73_23mer TD-derived peptide (red contours). Amino acids with significant CSP (Δδ > 0.046 ppm: G217, F228, N239, D241, D242, H252, I264, V265, L267, I268, E292, L298, V299, T301, D304, and H320) or residues that were unable to be identified in the bound spectra (V216, G219, V220, V243, […], S247, R263, G271, R303, K308, and F315) are labeled for reference. b CSP quantified as a function of Δδ ppm for each amino acid residue. The first dotted line indicates 1SD from the mean (0.023) and the solid line indicates 2SD from the mean (0.046). Amino acids with significant CSP were identified as >2SD above the mean (blue). Amino acids that were unable to be identified in the bound spectra were set to −0.01 to differentiate them from peaks with no CSP (red). […]
The NMR HSQC spectra were acquired using a Bruker 600 MHz magnet at the Central Alabama High Field NMR Facility. […] The resulting spectra were analyzed using Computer-Aided Resonance Assignment (CARA) and the peak lists were exported to Microsoft Excel for the CSP quantification and calculation of the mean and standard deviation. […]
Supplemental Fig 1. […] The two cut offs represent the 1 and 2 SD cut offs determined through the 50 µM 15N hMCL1 + 200 µM p7323mer spectra in Fig 2.

[6] = competitive FPA, 50 nM recombinant MCL1, 10 nM F-BAK, unlabeled peptide titration, 1x PBS pH 7.4, 20 min pre-incubation + 40 min, mean ± SD, biological and technical triplicate, read-out: FPA IC50

T1 sequence (Q07820 whole entry): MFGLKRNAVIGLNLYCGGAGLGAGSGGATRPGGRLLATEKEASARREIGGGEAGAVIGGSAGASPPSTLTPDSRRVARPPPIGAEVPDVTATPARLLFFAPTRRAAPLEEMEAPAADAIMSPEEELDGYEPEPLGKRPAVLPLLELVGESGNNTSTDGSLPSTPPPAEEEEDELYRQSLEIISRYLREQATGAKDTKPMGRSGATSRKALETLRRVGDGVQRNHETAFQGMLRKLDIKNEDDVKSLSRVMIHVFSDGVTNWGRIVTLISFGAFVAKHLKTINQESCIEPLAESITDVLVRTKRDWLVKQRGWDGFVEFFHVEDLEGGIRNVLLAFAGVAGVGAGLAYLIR

Compound: Cc1nn(C)c(COc2ccc(N3CCN(S(=O)(=O)N(C)C)CC3)cc2)c1-c1cccc2c(CCCOc3cccc4ccccc34)c(C(=O)O)n(CCN3CCOCC3)c12 [A1210477]
- p73 target gene expression (p21, NOXA, GADD45, PUMA) (H1299 cells; 2 μM): significant increases in gene expression in at least three of the four p73 target genes
- p73 target gene expression (p21, NOXA, GADD45, PUMA) (PC-3 cells [1]; 2 μM): significant increases in gene expression in at least three of the four p73 target genes
- IC50 (recombinant MCL1 [2]): 2590 nM
- Apoptotic induction, Annexin V/PI (PC-3 cells [3]; 2 μM, 24 hours, vs 0.5% DMSO): no increase in apoptotic induction

Compound: N.N.[Cl][Pt][Cl] [cisplatin]
- MCL1 protein levels in cytoplasmic and nuclear fractions (PC-3 cells [4]): increase MCL1 levels in both the cytoplasmic and nuclear compartments
- p73 target gene expression (p21, NOXA, GADD45, PUMA) (H1299 cells; 10 μM): statistically significant increases in expression in at least three of the four p73 target genes
- p73 target gene expression (p21, NOXA, GADD45, PUMA) (PC-3 cells [1]; 5 μM, 24 h): statistically significant increases in expression in at least three of the four p73 target genes
- Apoptosis, Annexin V/PI, positive control (PC-3 cells [3]; 50 µM): significant increase in apoptosis

Compound: DEDTYYLQVR-NH2 [β1]
- IC50 (recombinant MCL1 [2]; [6]): > 10000 nM

Compound: GRENFEILMKLKESLELMELVPQ-NH2 [p73_23mer]
- Kd (recombinant MCL1 [5]): ≤ 5 nM
- IC50 (recombinant MCL1 [2]; competitive FPA, 50 nM recombinant MCL1, 10 nM F-BAK, unlabeled peptide titration, 1x PBS pH 7.4, 20 min pre-incubation + 40 min, mean ± SD, biological and technical triplicate, SD, read-out: FPA IC50): 982 ± 195 nM

Compound: VPQPLVDSYRQQQQLLQR-NH2 [α2]
- IC50 (recombinant MCL1 [2]; [6]): > 10000 nM

Compound: p73DBD: recombinant p73 DNA-binding domain alone, amino acids 112–311
- Chemical shift perturbation of MCL1 (15N MCL1): No amino acids in this spectra exhibited significant shifts
- Association with MCL1 in competitive FPA (recombinant MCL1 [2]; 50 nM recombinant MCL1, 10 nM F-BAK, titration of unlabeled protein): Neither NMR nor competitive FPA analysis exhibited significant changes
